Test system: not listed separately
Assay: DRUGMATRIX: Atrial Natriuretic Factor (ANF) radioligand binding (ligand: [125I] ANF (rat))
Assay type: cell membranes, Cavia porcellus, Dunkin-Hartley, Adrenal gland, Membrane
Details: Not Active = under 50% inhibition at 10 µM

| SMILES | IC50 | Ki |
| --- | --- | --- |
| CCC1=C(C)CN(C(=O)NCCc2ccc(S(=O)(=O)NC(=O)N[C@H]3CC[C@H](C)CC3)cc2)C1=O [GLIMEPIRIDE] | Not Active | Not Active |
| Nc1cc(-c2ccncc2)c[nH]c1=O [INAMRINONE] | Not Active | Not Active |
| CN1CCC(=C2c3ccccc3CC(=O)c3sccc32)CC1 [KETOTIFEN] | Not Active | Not Active |
| C[N+](C)(C)C[C@H](O)CC(=O)[O-] [LEVOCARNITINE] | Not Active | Not Active |
| CCn1cc(C(=O)O)c(=O)c2cc(F)c(N3CCNC(C)C3)c(F)c21 (stereo not given) [LOMEFLOXACIN] | Not Active | Not Active |

Molecular target: Prostaglandin G/H synthase 1 (Homo sapiens, UniProt P23219);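 further: inhibition of COX-1 enzyme activity, with arachidonic acid supplied as substrate; in other assays of this panel Not Active means under 50% inhibition at 10 µM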
Sequence (P23219 whole entry): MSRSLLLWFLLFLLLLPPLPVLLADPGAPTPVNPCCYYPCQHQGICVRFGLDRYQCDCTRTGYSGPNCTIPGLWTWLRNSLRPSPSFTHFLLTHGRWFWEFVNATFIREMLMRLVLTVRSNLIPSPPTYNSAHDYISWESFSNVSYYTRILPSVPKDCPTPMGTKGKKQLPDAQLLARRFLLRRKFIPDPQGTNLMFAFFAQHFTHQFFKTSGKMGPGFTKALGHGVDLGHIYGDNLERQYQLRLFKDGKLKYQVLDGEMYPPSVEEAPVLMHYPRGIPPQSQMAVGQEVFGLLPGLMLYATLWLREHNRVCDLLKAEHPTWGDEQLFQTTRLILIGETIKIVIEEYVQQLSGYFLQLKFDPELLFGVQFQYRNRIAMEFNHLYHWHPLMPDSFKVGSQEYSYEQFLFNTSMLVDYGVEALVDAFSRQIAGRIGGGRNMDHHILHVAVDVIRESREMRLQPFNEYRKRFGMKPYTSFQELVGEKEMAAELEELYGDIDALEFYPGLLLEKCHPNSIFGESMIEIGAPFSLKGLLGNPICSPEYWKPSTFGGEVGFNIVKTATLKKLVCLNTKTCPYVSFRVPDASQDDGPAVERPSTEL
Assay: biochemical
Assay type: tissue-based, Platelet
Details: platelet

| SMILES | IC50 |
| --- | --- |
| CCC1=C(C)CN(C(=O)NCCc2ccc(S(=O)(=O)NC(=O)N[C@H]3CC[C@H](C)CC3)cc2)C1=O [GLIMEPIRIDE] | Not Active |
| Nc1cc(-c2ccncc2)c[nH]c1=O [INAMRINONE] | Not Active |
| CN1CCC(=C2c3ccccc3CC(=O)c3sccc32)CC1 [KETOTIFEN] | Not Active |
| C[N+](C)(C)C[C@H](O)CC(=O)[O-] [LEVOCARNITINE] | Not Active |
| CCn1cc(C(=O)O)c(=O)c2cc(F)c(N3CCNC(C)C3)c(F)c21 (stereo not given) [LOMEFLOXACIN] | Not Active |

Test system: not listed separately
Assay: DRUGMATRIX: GABAA, Flunitrazepam, Central radioligand binding (ligand: [3H] Flunitrazepam)
Assay type: cell membranes, Rattus norvegicus, Wistar, Brain, Membrane
Details: Not Active = under 50% inhibition at 10 µM

| SMILES | IC50 | Ki |
| --- | --- | --- |
| CCC1=C(C)CN(C(=O)NCCc2ccc(S(=O)(=O)NC(=O)N[C@H]3CC[C@H](C)CC3)cc2)C1=O [GLIMEPIRIDE] | Not Active | Not Active |
| Nc1cc(-c2ccncc2)c[nH]c1=O [INAMRINONE] | Not Active | Not Active |
| CN1CCC(=C2c3ccccc3CC(=O)c3sccc32)CC1 [KETOTIFEN] | Not Active | Not Active |
| C[N+](C)(C)C[C@H](O)CC(=O)[O-] [LEVOCARNITINE] | Not Active | Not Active |
| CCn1cc(C(=O)O)c(=O)c2cc(F)c(N3CCNC(C)C3)c(F)c21 (stereo not given) [LOMEFLOXACIN] | Not Active | Not Active |

Molecular target: Glycine receptor (Rattus norvegicus, UniProt P22771+P24524+P07727+P20781); further: in other assays of this panel Not Active means under 50% inhibition at 10 µM
Assay: not given
Assay type: cell membranes, Wistar, Spinal cord, Membrane
Details: not given

| SMILES | IC50 |
| --- | --- |
| CCC1=C(C)CN(C(=O)NCCc2ccc(S(=O)(=O)NC(=O)N[C@H]3CC[C@H](C)CC3)cc2)C1=O [GLIMEPIRIDE] | Not Active |
| Nc1cc(-c2ccncc2)c[nH]c1=O [INAMRINONE] | Not Active |
| CN1CCC(=C2c3ccccc3CC(=O)c3sccc32)CC1 [KETOTIFEN] | Not Active |
| C[N+](C)(C)C[C@H](O)CC(=O)[O-] [LEVOCARNITINE] | Not Active |
| CCn1cc(C(=O)O)c(=O)c2cc(F)c(N3CCNC(C)C3)c(F)c21 (stereo not given) [LOMEFLOXACIN] | Not Active |

Molecular target: T1, Cysteinyl leukotriene receptor 1 (Homo sapiens, UniProt Q9Y271); further: in other assays of this panel Not Active means under 50% inhibition at 10 µM
T1 sequence (Q9Y271 whole entry): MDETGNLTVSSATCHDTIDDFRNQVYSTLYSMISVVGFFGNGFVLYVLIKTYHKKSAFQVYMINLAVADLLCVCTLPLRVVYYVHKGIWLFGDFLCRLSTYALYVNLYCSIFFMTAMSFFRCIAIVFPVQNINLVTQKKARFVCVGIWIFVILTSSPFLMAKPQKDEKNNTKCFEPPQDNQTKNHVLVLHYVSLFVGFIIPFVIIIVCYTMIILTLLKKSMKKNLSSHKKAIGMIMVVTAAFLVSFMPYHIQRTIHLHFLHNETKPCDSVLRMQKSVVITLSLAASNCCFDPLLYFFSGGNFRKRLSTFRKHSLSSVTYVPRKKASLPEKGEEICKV
Assay: not given
Assay type: cell membranes, Membrane
Details: cho-k1

| SMILES | IC50 |
| --- | --- |
| CCC1=C(C)CN(C(=O)NCCc2ccc(S(=O)(=O)NC(=O)N[C@H]3CC[C@H](C)CC3)cc2)C1=O [GLIMEPIRIDE] | Not Active |
| Nc1cc(-c2ccncc2)c[nH]c1=O [INAMRINONE] | Not Active |
| CN1CCC(=C2c3ccccc3CC(=O)c3sccc32)CC1 [KETOTIFEN] | Not Active |
| C[N+](C)(C)C[C@H](O)CC(=O)[O-] [LEVOCARNITINE] | Not Active |
| CCn1cc(C(=O)O)c(=O)c2cc(F)c(N3CCNC(C)C3)c(F)c21 (stereo not given) [LOMEFLOXACIN] | Not Active |

Molecular target: cGMP-specific 3',5'-cyclic phosphodiesterase (Homo sapiens, UniProt O76074)
Assay: DRUGMATRIX: Phosphodiesterase PDE5 enzyme inhibition (substrate: [3H]cGMP + cGMP)
Assay type: tissue-based, Platelet
Details: platelet; Not Active = under 50% inhibition at 10 µM

| SMILES | IC50 |
| --- | --- |
| CCC1=C(C)CN(C(=O)NCCc2ccc(S(=O)(=O)NC(=O)N[C@H]3CC[C@H](C)CC3)cc2)C1=O [GLIMEPIRIDE] | Not Active |
| Nc1cc(-c2ccncc2)c[nH]c1=O [INAMRINONE] | Not Active |
| CN1CCC(=C2c3ccccc3CC(=O)c3sccc32)CC1 [KETOTIFEN] | Not Active |
| C[N+](C)(C)C[C@H](O)CC(=O)[O-] [LEVOCARNITINE] | Not Active |
| CCn1cc(C(=O)O)c(=O)c2cc(F)c(N3CCNC(C)C3)c(F)c21 (stereo not given) [LOMEFLOXACIN] | Not Active |

Molecular target: Cytochrome P450 2E1 (Homo sapiens, UniProt P05181); further: in other assays of this panel Not Active means under 50% inhibition at 10 µM
Sequence (P05181 whole entry): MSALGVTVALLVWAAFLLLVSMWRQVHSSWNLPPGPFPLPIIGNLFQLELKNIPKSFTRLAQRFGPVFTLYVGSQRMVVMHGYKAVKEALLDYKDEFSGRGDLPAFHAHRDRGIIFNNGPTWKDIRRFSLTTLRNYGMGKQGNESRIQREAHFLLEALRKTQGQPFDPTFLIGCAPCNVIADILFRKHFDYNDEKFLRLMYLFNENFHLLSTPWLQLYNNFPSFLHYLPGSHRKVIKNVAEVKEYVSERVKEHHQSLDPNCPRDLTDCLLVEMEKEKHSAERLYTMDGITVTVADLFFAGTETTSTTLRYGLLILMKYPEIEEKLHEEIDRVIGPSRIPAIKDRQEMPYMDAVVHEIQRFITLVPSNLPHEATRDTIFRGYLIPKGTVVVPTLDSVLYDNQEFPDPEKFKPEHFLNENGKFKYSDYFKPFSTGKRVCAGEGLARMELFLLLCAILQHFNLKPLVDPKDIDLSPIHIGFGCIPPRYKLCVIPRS
Assay: not given
Details: bti-tn-5b1-4

| SMILES | IC50 | Ki |
| --- | --- | --- |
| CCC1=C(C)CN(C(=O)NCCc2ccc(S(=O)(=O)NC(=O)N[C@H]3CC[C@H](C)CC3)cc2)C1=O [GLIMEPIRIDE] | Not Active | Not Active |
| Nc1cc(-c2ccncc2)c[nH]c1=O [INAMRINONE] | Not Active | Not Active |
| CN1CCC(=C2c3ccccc3CC(=O)c3sccc32)CC1 [KETOTIFEN] | Not Active | Not Active |
| C[N+](C)(C)C[C@H](O)CC(=O)[O-] [LEVOCARNITINE] | Not Active | Not Active |
| CCn1cc(C(=O)O)c(=O)c2cc(F)c(N3CCNC(C)C3)c(F)c21 (stereo not given) [LOMEFLOXACIN] | Not Active | Not Active |

Molecular target: T2, Glucocorticoid receptor (Homo sapiens, UniProt P04150); further: in other assays of this panel Not Active means under 50% inhibition at 10 µM
T2 sequence (P04150 whole entry): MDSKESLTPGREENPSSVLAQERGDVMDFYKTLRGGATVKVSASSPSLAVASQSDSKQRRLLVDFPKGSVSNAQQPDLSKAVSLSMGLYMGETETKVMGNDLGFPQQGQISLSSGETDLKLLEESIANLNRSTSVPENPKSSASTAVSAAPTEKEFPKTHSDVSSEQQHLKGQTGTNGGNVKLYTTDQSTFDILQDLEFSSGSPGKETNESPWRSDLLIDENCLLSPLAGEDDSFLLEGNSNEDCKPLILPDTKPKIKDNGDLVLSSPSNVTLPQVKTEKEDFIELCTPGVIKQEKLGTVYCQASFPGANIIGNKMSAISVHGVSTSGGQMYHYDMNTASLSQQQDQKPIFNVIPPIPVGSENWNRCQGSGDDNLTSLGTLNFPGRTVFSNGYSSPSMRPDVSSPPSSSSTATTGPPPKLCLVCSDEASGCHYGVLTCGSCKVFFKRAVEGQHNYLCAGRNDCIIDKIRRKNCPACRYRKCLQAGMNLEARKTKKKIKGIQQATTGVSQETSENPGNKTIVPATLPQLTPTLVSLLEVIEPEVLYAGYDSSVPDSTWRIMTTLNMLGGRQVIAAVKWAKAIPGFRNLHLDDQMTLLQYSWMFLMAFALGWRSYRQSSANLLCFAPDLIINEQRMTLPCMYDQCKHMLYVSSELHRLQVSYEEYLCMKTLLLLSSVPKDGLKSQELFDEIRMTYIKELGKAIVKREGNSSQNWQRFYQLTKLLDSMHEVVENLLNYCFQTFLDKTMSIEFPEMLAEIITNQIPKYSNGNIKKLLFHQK
Assay: not given
Details: hela s3

| SMILES | IC50 |
| --- | --- |
| CCC1=C(C)CN(C(=O)NCCc2ccc(S(=O)(=O)NC(=O)N[C@H]3CC[C@H](C)CC3)cc2)C1=O [GLIMEPIRIDE] | Not Active |
| Nc1cc(-c2ccncc2)c[nH]c1=O [INAMRINONE] | Not Active |
| CN1CCC(=C2c3ccccc3CC(=O)c3sccc32)CC1 [KETOTIFEN] | Not Active |
| C[N+](C)(C)C[C@H](O)CC(=O)[O-] [LEVOCARNITINE] | Not Active |
| CCn1cc(C(=O)O)c(=O)c2cc(F)c(N3CCNC(C)C3)c(F)c21 (stereo not given) [LOMEFLOXACIN] | Not Active |

— ChEMBL document CHEMBL1909046, “DrugMatrix in vitro pharmacology data”
